In patent publication US6828321B2, “1,2,4-Benzotriazine oxides as radiosensitizers and selective cytotoxic agents” (priority 1986, dated 2004):
Where two headings read alike, the source gives them in different places.

How the values were obtained:
[1] = tested on: hypoxic cells in culture; assay: Radiosensitivity in vitro: drug concentration giving a sensitizer enhancement ratio of 1.6; format: cell-based; details: concentration of drug necessary to produce a sensitizer enhancement ratio of 1.6 of hypoxic cells in culture
Description: The results of assays to determine the concentration of drug necessary to produce a sensitizer enhancement ratio of 1.6 of hypoxic cells in culture are as follows: […]

[2] = tested on: HA-1 cells; assay: Hypoxic versus aerobic cytotoxicity from survival curves of HA-1 cells; format: cell-based; details: for cytotoxicity against hypoxic HA-1 tumor cells in vitro compared to 22 / RHT (Relative Hypoxic Cytoxicity): hypoxic conditions; for RHT (Relative Hypoxic Cytoxicity): ratio of equitoxic concentrations of 22:analog; for RHT (Relative Hypoxic Cytoxicity) / HCR (Hypoxic Cytoxicity Ratio): HA-1 cells; for HCR (Hypoxic Cytoxicity Ratio): ratio of equitoxic concentrations of each analog, hypoxic:aerobic conditions
[3] = Polarographic half-wave reduction potential; format: physicochemical; details: Britton & Robinson pH 7.4 buffer, dropping mercury electrode
[4] = Octanol-water partition coefficient (method of Fujita et al.); format: physicochemical; details: pH 7.4 buffer
[5] = Determination of LD50; format: in vivo; details: mouse, in vivo; Balb/c female mice 3 months of age; ip (or iv) injection
Method: (§1) LD50 is determined in BALB/c female mice (weighing 20-25 g) following intraperitoneal (ip) injection, unless the compound tested has low lipophilicity and is very soluble, wherein intravenous (iv) administration is used. LD50 values at 1, 2, 5, and 60 days are determined by administering graded doses of the drug dissolved in physiological saline immediately prior to injection.

[6] = Solubility; format: physicochemical
[7] = tested on: BALB/c female mice; assay: Determination of LD50; format: in vivo; details: Balb/c female mice 3 months of age; ip (or iv) injection
Method: as §1

[8] = tested on: SCCVII carcinomas; assay: In vivo assay for activity in combination with radiation; design: species or system C3H mice; details: fixed radiation dose 20 Gy, 2 hr after to 3 hr before drug injection; FIG. 2
[9] = tested on: SCCVII tumor; assay: Enhanced tumor cell toxicity using hydralazine; format: in vivo, mice; details: FIG. 3
Method: For this assay, SCCVII carcinomas in female C3H mice weighing 20-25 g were used. These mice were bred under specific pathogen-free conditions and were 3-4 months old at the beginning of each experiment. The SCCVII tumor was grown intradermally in the flank from an inoculation of 2×10^5 tumor cells taken from the 2nd-8th in vitro passage of the tumor cells after removal from the previous in vivo tumor. Two tumors per mouse were implanted, and were used as subject tumors when they reached a volume of approximately 100 ml. At this point the tumors contained approximately 20% hypoxic cells.
The amount of cell killing was judged by survival rate of dissected and cultured tumor cells as follows. The tumor-bearing mice were killed 24 hr after irradiation, and tumors were dissected from the skin, cut into several pieces, and made into a fine brei by high-speed chopping with a razor blade attached to a jigsaw. The brei was added to 30 ml of Hank's buffered salt solution (HBSS) containing 0.02% DNase, 0.05% promase, and 0.02% collagenase. The suspension was stirred for 30 min at 37° C., filtered, and centrifuged at 1,600 rmp for 10 min at 4° C. […] Suitable dilutions of this serum plated into 60- or 100-mm polystyrene petri dishes (Lux Scientific Corp) in 5 or 15 ml of medium. After incubation for 13 days, the colonies were fixed and stained, and those containing 50 cells or more were counted. […]

[10] = tested on: aerobic and hypoxic cells in culture (human, mouse, and hamster); assay: Cytotoxicity tests on aerobic and hypoxic cells in culture; format: cell-based
Method: The cells in spinner flasks were gassed for one hour at 37° C. with either air or nitrogen containing 5% CO2 prior to adding the specified amounts of the drug.

[11] = tested on: SCCVII tumor; assay: Fractionated radiotherapy of SCCVII tumors (8 x 2.5 Gy in four days); details: SR 2508 1000 mg/kg before each dose; for effect on growth delay of irradiated tumors: compound 22 0.08 mmole/kg alone before or with HDZ after irradiation, FIG. 6; for effect on radiation response, clonogenic tumor cell survival: compound 22 0.08 mmole/kg alone or with HDZ, FIG. 5
Description: Our protocol was to use eight doses of 2.5 Gy/dose in four days (irradiating 2×/day). […] We used two different types of controls. […] We assayed the efficacies of the treatments using clonogenic cell survival and also regrowth delay.

[12] = tested on: Chinese hamster ovary (CHO) cells; assay: Aerobic radiosensitization of CHO cells by hypoxic pre- or post-treatment; format: cell-based; details: for cell survival after drug treatment alone: 20 μM, hypoxic
Description: The sensitization was predominantly a change in the slope of the radiation survival curve. Do decreased from 1.34 Gy (95% confidence limits: 1.09-1.76 Gy) to 0.80 Gy (95% confidence limits: 0.73-0.88 Gy), based on least-squares regression analysis of pooled data for the exponential portions of the survival curves for control and treated cells. However, sensitization at low radiation doses was also readily apparent.

CCCCCCCCCCc1ccc2nc(N)n[n+]([O-])c2c1
melting point: 177 °C (dec.)

NC(=O)c1ccc2nc(N)n[n+]([O-])c2c1
melting point: 300 °C

CC(=NO)c1ccc2nc(N)n[n+]([O-])c2c1
melting point: 278 °C (dec.)

6(7)-methoxy-3-amino-1,2,4-benzotriazine 1,4-dioxide
C1.6 [1]: ˜1.0 mM

[O-][n+]1nc(O)[n+]([O-])c2ccccc21 [3-hydroxy-1,2,4-benzotriazine 1,4-dioxide]
C1.6 [1]: ˜2.0 mM

Nc1nc2ccc(Cl)cc2[n+]([O-])n1 [7-chloro-3-amino-1,2,4-benzotriazine 1-oxide]
C1.6 [1]: 3.3 mM

Nc1n[n+]([O-])c2cc([N+](=O)[O-])ccc2[n+]1[O-] [Compound 14, 7-nitro-3-amino-1,2,4-benzotriazine 1,4-dioxide]
cytotoxicity against hypoxic HA-1 tumor cells in vitro compared to 22 [2]: significantly enhanced cytotoxicity | RHT (Relative Hypoxic Cytoxicity) [2]: 2 | HCR (Hypoxic Cytoxicity Ratio) [2]: 140 | E1/2 [3]: −133 mV

CCN(CC)CCCNc1n[n+]([O-])c2ccccc2[n+]1[O-] [Compound 18a, 3-(3-N,N-diethylaminopropylamino)-1,2,4-benzotriazine 1,4-dioxide]
logP [4]: -1.34 | cytotoxicity against hypoxic HA-1 tumor cells in vitro compared to 22 [2]: significantly enhanced cytotoxicity | LD50 [5]: 250 µmol/kg | E1/2 [3]: −348 mV | solubility ([6]; read-out: Solubility): > 181 mM

CCN(CC)CCNc1n[n+]([O-])c2cc([N+](=O)[O-])ccc2[n+]1[O-].Cl [Compound 21, 7-nitro-3-(2-N,N-diethylaminoethylamino)-1,2,4-benzotriazine 1,4-dioxide hydrochloride]
Log P [4]: −0.20 | cytotoxicity against hypoxic HA-1 tumor cells in vitro compared to 22 [2]: significantly enhanced cytotoxicity | RHT (Relative Hypoxic Cytoxicity) [2]: 3 | HCR (Hypoxic Cytoxicity Ratio) [2]: 211 | LD50 [7]: 0.40 | E1/2 [3]: −140 mV | solubility [6]: 96.40 mM

Nc1n[n+]([O-])c2ccccc2[n+]1[O-] [Compound 22, 3-amino-1,2,4-benzotriazine 1,4-dioxide]
tumor cell killing combined with radiation compared to radiation only [8]: enhanced cell killing compared to radiation only | factor by which survival was reduced ([9]; combination with hydralazine): 10^3 | cell killing in the SCCVII tumor, agent alone ([9]; single agent): neither hydralazine nor the aforementioned benzotriazine compound produced any significant cell killing | drug concentration required under hypoxia for equal cell killing, as share of the aerobic concentration [10]: 1 to 2% | effect on growth delay of irradiated tumors [11]: large increase in effect compared to radiation or drug alone | effect on radiation response, clonogenic tumor cell survival [11]: large enhancement of the radiation response | cell survival after drug treatment alone ([12]; 1.0 h preirradiation exposure): approximately 32% | cell survival after drug treatment alone ([12]; 1.5 h postirradiation treatment): 23% | cell survival after drug treatment alone ([12]; 1.5 h preirradiation exposure): ~19% | cell survival after drug treatment alone ([12]; 2.0 h preirradiation exposure): ~8% | cell survival after drug treatment alone ([12]; 2.5 h preirradiation exposure): ~2% | Do of the radiation survival curve of treated cells ([12]; pooled data of treated cells, control 1.34 Gy, 95% confidence limits 0.73-0.88 Gy): 0.80 Gy

O=C(Cn1ccnc1[N+](=O)[O-])NCCO [SR 2508, reference compound]
effect on growth delay of irradiated tumors [11]: no radiosensitizing effect | effect on radiation response, clonogenic tumor cell survival [11]: no effect
